In US20230374007A1, “COMPOUNDS AND THEIR USE IN TREATING CANCER” (AstraZeneca AB, priority 2020, published 2023):

What follows are compounds tested against T1, cereblon (CRBN)—DNA damage protein 1 (DDB1) complex (Homo sapiens, UniProt Q96SW2) (assay: Cereblon HTRF binding assay).
T1 construct: encoding amino acid residues 1 to 442 (Uniprot Q96SW2); hexahistidine (N); thrombin cleavage site (N); made in house; host or cells: Sf9 insect cells (baculovirus co-infection)
Description: The synthesized sequence was designed to encode an N-terminal hexahistidine tag, a thrombin cleavage site, an AviTag™ and a tobacco etch virus protease (TEV) cleavage site followed by the CBRN sequence. The resulting protein sequence is listed below.
The synthesized sequence was designed to encode an N-terminal hexahistidine tag, a tobacco etch virus protease (TEV) cleavage site followed by the DDB1 sequence. […] The linker amino acid residues are underlined and shown in italics.
Baculovirus production of CBRN and DDB1: Recombinant bacmid and P2 virus of CBRN and DDB1 was generated according to the Bac-to-Bac Baculovirus Expression System manual (ThermoFisher Scientific).
Protein Purification: Protein purification was initiated by thawing cells (resuspended in Lysis buffer) at r.t. Once thawed, NaCl was added to a final concentration of 200 mM, followed by 0.01 μL/mL Benzonase™ and the lysate was incubated with slow stirring for 20 minutes. After the freeze-thaw lysis, the whole cell lysate was centrifuged at 48 000 g for 45 minutes and all following purification steps were done on ice or in cold-room. Supernatant (cell lysate) was mixed with 1 mL/50 mL lysate Ni Sepharose™ 6 Fast Flow (Cytiva) pre-equilibrated with Wash buffer (50 mM Tris-Cl pH 8, 20 mM Imidazole, 500 mM NaCl, 10% Glycerol, 1 mM TCEP) and incubated with slow stirring for 1 h. The mix was loaded in a 70 mL open gravity flow column, washed with 10 bed volumes of Wash buffer, and stepwise eluted with 300 mM imidazole in Wash buffer. […] After biotinylation, the CBRN/DDB1 complex was purified by Size Exclusion Chromatography on a HiLoad™ 26/60 Superdex™ 200 column equilibrated in SEC buffer (50 mM HEPES pH 7.5, 200 mM NaCl, 5% glycerol, 1 mM TCEP) before flash-freezing in liquid nitrogen and storage at −80° C.
The assay mixture in a total volume of 4 μL consists of 50 mM Tris-HCl at pH 7.5, 100 mM NaCl, 0.01% Pluronic F127, 1 mM TCEP, 500 μM EDTA, 0.2 nM CRBN-DDB1, 0.2 nM terbium cryptate labeled streptavidin, and 2 nM Cyanine 5-labeled lenalidomide as the probe. […] Reagents were dispensed into the 384-well assay microplate using a Certus Flex liquid dispenser. After incubation for 2 h at r.t., the assay plates were read on a PHERAstar FSX plate reader (BMG Labtech) in the HTRF mode. The raw data from PHERAstar was directly imported into Genedata Screener for analysis. […] The ratio was normalized to positive and negative controls on the same plates to calculate percent inhibition: I %=(I−NC)/(PC−NC), where I are readings from the compound treated well, NC and PC are average readings from negative control wells and positive control wells, respectively. IC50 values were obtained by fitting the I % vs. compound concentration [I] to I %=S0+(SInf−S0)/(1+((IC50/[I])^n)), where S0 is the fitted activity level at zero concentration of test compound, SInf is the fitted activity level at […] concentration of test compound, and n is the hill coefficient of the curve.
The IC50 values reported below are the calculated mean result of one or more experiments.

T1 sequence (Q96SW2 with tags, fused parts or gaps): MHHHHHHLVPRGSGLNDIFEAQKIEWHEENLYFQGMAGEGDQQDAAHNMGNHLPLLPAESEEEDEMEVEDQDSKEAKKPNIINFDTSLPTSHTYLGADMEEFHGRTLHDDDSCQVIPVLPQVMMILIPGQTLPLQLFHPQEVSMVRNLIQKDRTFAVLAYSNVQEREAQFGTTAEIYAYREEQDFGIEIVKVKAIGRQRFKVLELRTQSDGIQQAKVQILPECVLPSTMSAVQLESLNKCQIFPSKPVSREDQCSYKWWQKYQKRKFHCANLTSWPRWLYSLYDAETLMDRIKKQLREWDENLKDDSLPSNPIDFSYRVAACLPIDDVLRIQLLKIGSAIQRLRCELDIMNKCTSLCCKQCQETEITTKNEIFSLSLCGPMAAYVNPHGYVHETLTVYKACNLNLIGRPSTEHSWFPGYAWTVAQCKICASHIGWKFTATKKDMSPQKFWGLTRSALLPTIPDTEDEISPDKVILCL

Q: With `O=C1CCN(c2ccc3[nH]ccc3c2)C(=O)N1` [Example 56, 1-(1H-Indol-5-yl)dihydropyrimidine-2,4 (1H,3H)-dione] as the compound, how does the IC50 read?
A: 0.341 µM

Q: For `O=C1NC(=O)N(c2ccc3cc[nH]c3c2)CC1F` (stereo not drawn) [Example 45, 5-Fluoro-1-(1H-indol-6-yl)dihydropyrimidine-2,4 (1H,3H)-dione], which IC50 is on record?
A: 0.967 µM

Q: `O=C1CCN(c2cccc3[nH]c(C4CCNCC4)cc23)C(=O)N1` [Example 86, 1-(2-(Piperidin-4-yl)-1H-indol-4-yl)dihydropyrimidine-2,4 (1H,3H)-dione] was tested. Which IC50 did it give?
A: 0.291 µM

Q: How did the IC50 turn out when `CN1Cc2ccc(N3CCC(=O)NC3=O)cc2C1=O` [Example 10, 1-(2-Methyl-3-oxoisoindolin-5-yl)dihydropyrimidine-2,4 (1H,3H)-dione] was run?
A: 7.88 µM

Q: Which IC50 does the source give for `CN1CCCc2cc(N3CCC(=O)NC3=O)ccc21` [Example 27, 1-(1-Methyl-1,2,3,4-tetrahydroquinolin-6-yl)dihydropyrimidine-2,4 (1H,3H)-dione] here?
A: 1.04 µM

Q: How did the IC50 turn out when `CN1CCN(c2cn(C)c3cc(N4CCC(=O)NC4=O)ccc23)CC1` [Example 75, 1-(1-Methyl-3-(4-methylpiperazin-1-yl)-1H-indol-6-yl)dihydropyrimidine-2,4 (1H,3H)-dione] was run?
A: 4.04 µM

Q: Which IC50 does the source give for `O=C1CCN(c2ccc3c(ccn3C3CCNCC3)c2)C(=O)N1` [Example 113, 1-(1-(Piperidin-4-yl)-1H-indol-5-yl)dihydropyrimidine-2,4 (1H,3H)-dione] here?
A: 1.08 µM

Q: How did the IC50 turn out when `CN1CCC(n2ccc3ccc(N4CCC(=O)NC4=O)cc32)CC1` [Example 121, 1-(1-(1-Methylpiperidin-4-yl)-1H-indol-6-yl)dihydropyrimidine-2,4 (1H,3H)-dione] was run?
A: 3.84 µM

Q: For `CN1CCc2cc(N3CCC(=O)NC3=O)ccc21` [Example 21, 1-(1-Methylindolin-5-yl)dihydropyrimidine-2,4 (1H,3H)-dione], which IC50 is on record?
A: 0.784 µM

Q: With `O=C1CCN(c2cccc3nc(N4CCNCC4)sc23)C(=O)N1` [Example 101, 1-(2-(Piperazin-1-yl)benzo[d]thiazol-7-yl)dihydropyrimidine-2,4 (1H,3H)-dione] as the compound, how does the IC50 read?
A: 0.161 µM

Q: How did the IC50 turn out when `O=C1CCN(c2cnc3cnoc3c2)C(=O)N1` [Example 36, 1-(Isoxazolo[4,5-b]pyridin-6-yl)dihydropyrimidine-2,4 (1H,3H)-dione] was run?
A: 0.115 µM

Q: With `CN1CCN(c2cn(C)c3ccc(N4CCC(=O)NC4=O)cc23)CC1` [Example 80, 1-(1-Methyl-3-(4-methylpiperazin-1-yl)-1H-indol-5-yl)dihydropyrimidine-2,4 (1H,3H)-dione] as the compound, how does the IC50 read?
A: 3.15 µM

Q: `O=C1CCN(c2cccc3[nH]ccc23)C(=O)N1` [Example 18, 1-(1H-Indol-4-yl)dihydropyrimidine-2,4 (1H,3H)-dione] was tested. Which IC50 did it give?
A: 0.347 µM

Q: With `O=C1CCN(c2ccc3nn[nH]c3c2)C(=O)N1` [Example 38, 1-(1H-Benzo[d][1,2,3]triazol-6-yl)dihydropyrimidine-2,4 (1H,3H)-dione] as the compound, how does the IC50 read?
A: 0.566 µM

Q: Which IC50 does the source give for `CC(=O)N1CCC(n2ccc3cc(N4CCC(=O)NC4=O)ccc32)CC1` [Example 115, 1-(1-(1-Acetylpiperidin-4-yl)-1H-indol-5-yl)dihydropyrimidine-2,4 (1H,3H)-dione] here?
A: 0.933 µM

Q: With `O=C1CCN(c2ccc3[nH]ncc3c2)C(=O)N1` [Example 35, 1-(1H-Indazol-5-yl)dihydropyrimidine-2,4 (1H,3H)-dione] as the compound, how does the IC50 read?
A: 2.97 µM

Q: For `O=C1CCN(c2ccc3ccnn3c2)C(=O)N1` [Example 3, 1-(Pyrazolo[1,5-a]pyridin-6-yl)dihydropyrimidine-2,4 (1H,3H)-dione], which IC50 is on record?
A: 3.28 µM

Q: With `CN1CCN(c2c[nH]c3cc(N4CCC(=O)NC4=O)ccc23)CC1` [Example 72, 1-(3-(4-Methylpiperazin-1-yl)-1H-indol-6-yl)dihydropyrimidine-2,4 (1H,3H)-dione] as the compound, how does the IC50 read?
A: 0.926 µM

Q: With `O=C1CCN(c2ccc3nc[nH]c3c2)C(=O)N1` [Example 41, 1-(1H-Benzo[d]imidazol-6-yl)dihydropyrimidine-2,4 (1H,311)-dione] as the compound, how does the IC50 read?
A: 1.17 µM

Q: Which IC50 does the source give for `CN1CCN(c2nc3ccc(N4CCC(=O)NC4=O)cc3o2)CC1` [Example 99, 1-(2-(4-Methylpiperazin-1-yl)benzo[d]oxazol-6-yl)dihydropyrimidine-2,4 (1H,3H)-dione] here?
A: 4.56 µM

Q: For `O=C1CCN(c2cccc3[nH]ncc23)C(=O)N1` [Example 34, 1-(1H-Indazol-4-yl)dihydropyrimidine-2,4 (1H,3H)-dione], which IC50 is on record?
A: 0.627 µM

Q: With `O=C1CCN(c2ccc3c(c2)CCN3)C(=O)N1` [Example 20, 1-(Indolin-5-yl)dihydropyrimidine-2,4 (1H,3H)-dione] as the compound, how does the IC50 read?
A: 0.357 µM

Q: With `CNC(=O)CCn1ccc2ccc(N3CCC(=O)NC3=O)cc21` [Example 69, 3-(6-(2,4-Dioxotetrahydropyrimidin-1 (2H)-yl)-1H-indol-1-yl)-N-methylpropanamide] as the compound, how does the IC50 read?
A: 3.54 µM

Q: Which IC50 does the source give for `O=C1CCN(c2ccc3cn(C4CCNCC4)nc3c2)C(=O)N1` [Example 109, 1-(2-(Piperidin-4-yl)-2H-indazol-6-yl)dihydropyrimidine-2,4 (1H,3H)-dione] here?
A: 1.03 µM

Q: `O=C1CCN(c2ccc3c(cnn3C3CCNCC3)c2)C(=O)N1` [Example 106, 1-(1-(Piperidin-4-yl)-1H-indazol-5-yl)dihydropyrimidine-2,4 (1H,3H)-dione] was tested. Which IC50 did it give?
A: 4.04 µM

Q: `O=C1CCN(c2ccc3c(c2)NCCC3)C(=O)N1` [Example 32, 1-(1,2,3,4-Tetrahydroquinolin-7-yl)dihydropyrimidine-2,4 (1H,3H)-dione] was tested. Which IC50 did it give?
A: 1.23 µM

Q: Which IC50 does the source give for `COc1c(N2CCC(=O)NC2=O)ccc2cc[nH]c12` [Example 62, 1-(7-Methoxy-1H-indol-6-yl)dihydropyrimidine-2,4 (1H,3H)-dione] here?
A: 2.14 µM

Q: How did the IC50 turn out when `O=c1[nH]c(=O)n(-c2ccc3cc[nH]c3c2)cc1F` [Example 14, 5-Fluoro-1-(1H-indol-6-yl)pyrimidine-2,4 (1H,3H)-dione] was run?
A: 0.516 µM

Q: How did the IC50 turn out when `CC(=O)N1CCC(n2ccc3ccc(N4CCC(=O)NC4=O)cc32)CC1` [Example 122, 1-(1-(1-Acetylpiperidin-4-yl)-1H-indol-6-yl)dihydropyrimidine-2,4 (1H,3H)-dione] was run?
A: 2.12 µM

Q: `CN1CCN(c2ccc(N3CCC(=O)NC3=O)c3ccn(C)c23)CC1` [Example 126, 1-(1-Methyl-7-(4-methylpiperazin-1-yl)-1H-indol-4-yl)dihydropyrimidine-2,4 (1H,3H)-dione] was tested. Which IC50 did it give?
A: 0.577 µM

Q: Which IC50 does the source give for `Cn1c(=O)oc2cc(N3CCC(=O)NC3=O)ccc21` [Example 12, 1-(3-Methyl-2-oxo-2,3-dihydrobenzo[d]oxazol-6-yl)dihydropyrimidine-2,4 (1H,3H)-dione] here?
A: 11 µM

Q: `COc1cc2cc[nH]c2cc1N1CCC(=O)NC1=O` [Example 61, 1-(5-Methoxy-1H-indol-6-yl)dihydropyrimidine-2,4 (1H,3H)-dione] was tested. Which IC50 did it give?
A: 1.51 µM

Q: For `O=C1CCN(c2ccc3cn[nH]c3c2)C(=O)N1` [Example 42, 1-(1H-Indazol-6-yl)dihydropyrimidine-2,4 (1H,3H)-dione], which IC50 is on record?
A: 2.11 µM

Q: `O=C1CCN(c2ccc3sccc3c2)C(=O)N1` [Example 130, 1-(Benzo[b]thiophen-5-yl)dihydropyrimidine-2,4 (1H,3H)-dione] was tested. Which IC50 did it give?
A: 0.706 µM

Q: How did the IC50 turn out when `Cc1cc(N2CCC(=O)NC2=O)cc2[nH]ccc12` [Example 51, 1-(4-Methyl-1H-indol-6-yl)dihydropyrimidine-2,4 (1H,3H)-dione] was run?
A: 0.511 µM

Q: Which IC50 does the source give for `O=C1CCN(c2ccc3ccoc3c2)C(=O)N1` [Example 1, 1-(Benzofuran-6-yl)dihydropyrimidine-2,4 (1H,3H)-dione] here?
A: 2.1 µM

Q: How did the IC50 turn out when `O=C1CCN(c2cc(N3CCNCC3)cc3[nH]ccc23)C(=O)N1` [Example 91, 1-(6-(Piperazin-1-yl)-1H-indol-4-yl)dihydropyrimidine-2,4 (1H,3H)-dione] was run?
A: 0.762 µM

Q: With `CC(=O)N1CCC(c2cc3ccc(N4CCC(=O)NC4=O)cc3[nH]2)CC1` [Example 83, 1-(2-(1-Acetylpiperidin-4-yl)-1H-indol-6-yl)dihydropyrimidine-2,4 (1H,3H)-dione] as the compound, how does the IC50 read?
A: 0.113 µM

Q: `O=C1CCN(c2ccc3c(N4CCNCC4)noc3c2)C(=O)N1` [Example 93, 1-(3-(Piperazin-1-yl)benzo[d]isoxazol-6-yl)dihydropyrimidine-2,4 (1H,3H)-dione] was tested. Which IC50 did it give?
A: 12.8 µM
